The values that follow come from US8119643B2, “Benzoimidazolyl-pyrazine compounds for inflammation and immune-related uses” (Synta Pharmaceuticals Corp., priority 2006, dated 2012).

Each structure is given as a SMILES string.

The assay has as its system IL-2 production. The experiment in a line: Inhibition of IL-2 production in PHA-activated Jurkat cells (ELISA). The format is cell-based. The note with it: Homo sapiens, PHA 2.5 μg/mL, 20 hours, IL-2 ELISA. On the procedure:
Jurkat cells were placed in a 96 well plate (0.5 million cells per well in 1% FBS medium) then a test compound of this invention was added at different concentrations. After 10 minutes, the cells were activated with PHA (final concentration 2.5 μg/mL) and incubated for 20 hours at 37° C. under CO2. The final volume was 200 μL. Following incubation, the cells were centrifuged and the supernatants were collected and stored at −70° C. prior to assaying for IL-2 production. A commercial ELISA kit (IL-2 Eli-pair, Diaclone Research, Besancon, France) was used to detect production of IL-2, from which dose response curves were obtained. The IC50 value was calculated as the concentration at which 50% of maximum IL-2 production after stimulation was inhibited versus a non-stimulation control.
In general, IC50 refers to the midpoint of a concentration-inhibition curve. Take `COc1ccc2c(c1)nc(C(F)(F)F)n2-c1cnc(NCc2c(F)cccc2Cl)cn1` [Compound 100, (2-Chloro-6-fluoro-benzyl)-[5-(5-methoxy-2-trifluoromethyl-benzoimidazol-1-yl)-pyrazin-2-yl]-amine]: half-maximal inhibition (IC50) required 132 nM. Then `COc1ccc2c(c1)nc(C(F)(F)F)n2-c1cnc(NC(=O)c2cc(F)ccc2Cl)cn1` [Compound 151, 2-Chloro-5-fluoro-N-[5-(5-methoxy-2-trifluoromethyl-benzoimidazol-1-yl)-pyrazin-2-yl]-benzamide], with 27 nM.

As for `COc1ccc2c(c1)nc(C(F)(F)F)n2-c1cnc(NC(=O)c2ccc(C)cc2)cn1` [Compound 118, N-[5-(5-Methoxy-2-trifluoromethyl-benzoimidazol-1-yl)-pyrazin-2-yl]-4-methyl-benzamide], the half-maximal inhibitory concentration (IC50) was found to be 40 nM.

In the case of `COc1ccc2c(c1)nc(C(F)(F)F)n2-c1cnc(NC(=O)c2cccc([N+](=O)[O-])c2)cn1` [Compound 98, N-[5-(5-Methoxy-2-trifluoromethyl-benzoimidazol-1-yl)-pyrazin-2-yl]-3-nitro-benzamide], the IC50 was found to be 104 nM.

Compound `COc1ccc2c(c1)nc(C(F)(F)F)n2-c1cnc(NC(=O)c2ccc(F)cc2Br)cn1` [Compound 138, 2-Bromo-4-fluoro-N-[5-(5-methoxy-2-trifluoromethyl-benzoimidazol-1-yl)-pyrazin-2-yl]-benzamide] had a concentration for half-maximal inhibition (IC50) of 83 nM. Then `COc1ccc2c(c1)nc(C(F)(F)F)n2-c1cnc(NC(=O)c2ccc(F)c(F)c2F)cn1` [Compound 149, 2,3,4-Trifluoro-N-[5-(5-methoxy-2-trifluoromethyl-benzoimidazol-1-yl)-pyrazin-2-yl]-benzamide], with 88 nM; and `COc1ccc2c(c1)nc(C(F)(F)F)n2-c1cnc(NC(=O)c2ccccc2Cl)cn1` [Compound 99, 2-Chloro-N-[5-(5-methoxy-2-trifluoromethyl-benzoimidazol-1-yl)-pyrazin-2-yl]-benzamide], with 52 nM; and `COc1ccc2c(c1)nc(C(F)(F)F)n2-c1cnc(NC(=O)c2ccc(Cl)c([N+](=O)[O-])c2)cn1` [Compound 139, 4-Chloro-N-[5-(5-methoxy-2-trifluoromethyl-benzoimidazol-1-yl)-pyrazin-2-yl]-3-nitro-benzamide], with more than 1000 nM.

On to `COc1ccc2c(c1)nc(C(F)(F)F)n2-c1cnc(NC(=O)c2cccc(C)c2[N+](=O)[O-])cn1` [Compound 142, N-[5-(5-Methoxy-2-trifluoromethyl-benzoimidazol-1-yl)-pyrazin-2-yl]-3-methyl-2-nitro-benzamide], for which the midpoint of inhibition, the IC50, lay at 324 nM. The same measure for `COc1ccc2c(c1)nc(C(F)(F)F)n2-c1cnc(NC(=O)c2ccc(Cl)cc2OC)cn1` [Compound 134, 4-Chloro-2-methoxy-N-[5-(5-methoxy-2-trifluoromethyl-benzoimidazol-1-yl)-pyrazin-2-yl]-benzamide]: more than 1000 nM. The same measure for `COc1ccc2c(c1)nc(C(F)(F)F)n2-c1cnc(NC(=O)c2cccc(Br)c2)cn1` [Compound 108, 3-Bromo-N-[5-(5-methoxy-2-trifluoromethyl-benzoimidazol-1-yl)-pyrazin-2-yl]-benzamide]: 57 nM.

`COc1ccc2c(c1)nc(C(F)(F)F)n2-c1cnc(NC(=O)c2ccc(Cl)cc2Cl)cn1` [Compound 110, 2,4-Dichloro-N-[5-(5-methoxy-2-trifluoromethyl-benzoimidazol-1-yl)-pyrazin-2-yl]-benzamide] displayed an IC50 of 19 nM. Turning to `COc1ccc2c(c1)nc(C(F)(F)F)n2-c1cnc(NCc2ccccc2Cl)cn1` [Compound 87, (2-Chloro-benzyl)-[5-(5-methoxy-2-trifluoromethyl-benzoimidazol-1-yl)-pyrazin-2-yl]-amine], the IC50 was more than 1000 nM. In turn, `COc1ccc2c(c1)nc(C(F)(F)F)n2-c1cnc(NC(=O)c2cc(Br)ccc2F)cn1` [Compound 130, 5-Bromo-2-fluoro-N-[5-(5-methoxy-2-trifluoromethyl-benzoimidazol-1-yl)-pyrazin-2-yl]-benzamide] came in with a concentration for half-maximal inhibition (IC50) of 130 nM.

In the case of `COc1ccc2c(c1)nc(C(F)(F)F)n2-c1cnc(NC(=O)c2ccc(C)c([N+](=O)[O-])c2)cn1` [Compound 140, N-[5-(5-Methoxy-2-trifluoromethyl-benzoimidazol-1-yl)-pyrazin-2-yl]-4-methyl-3-nitro-benzamide], the IC50 was found to be 192 nM. The same measure for `COc1ccc2c(c1)nc(C(F)(F)F)n2-c1cnc(NC(=O)c2ccc(C(F)(F)F)cc2OC)cn1` [Compound 144, 2-Methoxy-N-[5-(5-methoxy-2-trifluoromethyl-benzoimidazol-1-yl)-pyrazin-2-yl]-4-trifluoromethyl-benzamide]: more than 1000 nM.

`COc1ccc(CNc2cnc(-n3c(C(F)(F)F)nc4cc(OC)ccc43)cn2)cc1` [Compound 90, (4-Methoxy-benzyl)-[5-(5-methoxy-2-trifluoromethyl-benzoimidazol-1-yl)-pyrazin-2-yl]-amine] came in with an IC50 of more than 1000 nM. Then `COc1ccc2c(c1)nc(C(F)(F)F)n2-c1cnc(NC(=O)c2cc([N+](=O)[O-])ccc2C)cn1` [Compound 146, N-[5-(5-Methoxy-2-trifluoromethyl-benzoimidazol-1-yl)-pyrazin-2-yl]-2-methyl-5-nitro-benzamide], with 18 nM; and `COc1ccc2c(c1)nc(C(F)(F)F)n2-c1cnc(NC(=O)c2cccc(F)c2)cn1` [Compound 88, 3-Fluoro-N-[5-(5-methoxy-2-trifluoromethyl-benzoimidazol-1-yl)-pyrazin-2-yl]-benzamide], with 101 nM; and `COc1ccc2c(c1)nc(C(F)(F)F)n2-c1cnc(NC(=O)c2cc(F)c(F)cc2F)cn1` [Compound 143, 2,4,5-Trifluoro-N-[5-(5-methoxy-2-trifluoromethyl-benzoimidazol-1-yl)-pyrazin-2-yl]-benzamide], with 178 nM. The same measure for `COC(=O)c1ccc2c(c1)nc(C(F)(F)F)n2-c1cnc(NC(=O)c2ccncc2C)cn1` [Compound 28, 1-{5-[(3-Methyl-pyridine-4-carbonyl)-amino]-pyrazin-2-yl}-2-trifluoromethyl-1H-benzoimidazole-5-carboxylic acid methyl ester]: 112 nM; for `COc1ccc2c(c1)nc(C(F)(F)F)n2-c1cnc(NC(=O)c2ccc(C)cc2C)cn1` [Compound 94, N-[5-(5-Methoxy-2-trifluoromethyl-benzoimidazol-1-yl)-pyrazin-2-yl]-2,4-dimethyl-benzamide]: 78 nM.

In turn, `COc1ccc(C(=O)Nc2cnc(-n3c(C(F)(F)F)nc4cc(OC)ccc43)cn2)c(F)c1` [Compound 127, 2-Fluoro-4-methoxy-N-[5-(5-methoxy-2-trifluoromethyl-benzoimidazol-1-yl)-pyrazin-2-yl]-benzamide] came in with an IC50 of 105 nM. Then `COc1ccc2c(c1)nc(C(F)(F)F)n2-c1cnc(NCc2ccncc2)cn1` [Compound 105, [5-(5-Methoxy-2-trifluoromethyl-benzoimidazol-1-yl)-pyrazin-2-yl]-pyridin-4-ylmethyl-amine], with more than 1000 nM.

As for `CCOc1ccc(C(=O)Nc2cnc(-n3c(C(F)(F)F)nc4cc(OC)ccc43)cn2)cc1` [Compound 133, 4-Ethoxy-N-[5-(5-methoxy-2-trifluoromethyl-benzoimidazol-1-yl)-pyrazin-2-yl]-benzamide], the IC50 was more than 1000 nM. `COc1ccc2c(c1)nc(C(F)(F)F)n2-c1cnc(NC(=O)c2cccc(C)c2C)cn1` [Compound 92, N-[5-(5-Methoxy-2-trifluoromethyl-benzoimidazol-1-yl)-pyrazin-2-yl]-2,3-dimethyl-benzamide] displayed a half-maximal inhibitory concentration (IC50) of 17 nM.

For the compound `COc1ccc2c(c1)nc(C(F)(F)F)n2-c1cnc(NCc2c(F)cccc2F)cn1` [Compound 37, (2,6-Difluoro-benzyl)-[5-(5-methoxy-2-trifluoromethyl-benzoimidazol-1-yl)-pyrazin-2-yl]-amine], half-maximal inhibition (IC50) required 103 nM. Then `COc1ccc2c(c1)nc(C(F)(F)F)n2-c1cnc(NC(=O)c2cccc(SC)c2)cn1` [Compound 95, N-[5-(5-Methoxy-2-trifluoromethyl-benzoimidazol-1-yl)-pyrazin-2-yl]-3-methylsulfanyl-benzamide], with 489 nM. With `COc1ccc2c(c1)nc(C(F)(F)F)n2-c1cnc(NCC2CCCCC2)cn1` [Compound 73, Cyclohexylmethyl-[5-(5-methoxy-2-trifluoromethyl-benzoimidazol-1-yl)-pyrazin-2-yl]-amine], the IC50 was more than 1000 nM.

In turn, `COc1ccc2c(c1)nc(C(F)(F)F)n2-c1cnc(NC(=O)c2cccc(OC)c2OC)cn1` [Compound 128, 2,3-Dimethoxy-N-[5-(5-methoxy-2-trifluoromethyl-benzoimidazol-1-yl)-pyrazin-2-yl]-benzamide] gave a half-inhibitory concentration (IC50) of 187 nM. The same measure for `COC(=O)c1ccc2c(c1)nc(C(F)(F)F)n2-c1cnc(NC(=O)c2c(F)cccc2F)cn1` [Compound 25, 1-[5-(2,6-Difluoro-benzoylamino)-pyrazin-2-yl]-2-trifluoromethyl-1H-benzoimidazole-5-carboxylic acid methyl ester]: 29 nM.
